Source: patent publication US8618151B2, “Inhibitors of HCV NS5A” (Presidio Pharmaceuticals, Inc., priority 2008, dated 2013)

System: HCV genotype 1b replicon
Experiment: HCV replicon assay (1b_Huh-Luc/Neo-ET cell line, luciferase readout)
Assay type: cell-based
Conditions: Hepatitis C virus, Huh-7, 72 h, read-out: Inhibition of HCV genotype 1b
Experimental: Biological activity of the compounds of the invention was determined using an HCV replicon assay. The 1b_Huh-Luc/Neo-ET cell line persistently expressing a bicistronic genotype 1b replicon in Huh 7 cells was obtained from ReBLikon GMBH. This cell line was used to test compound inhibition using luciferase enzyme activity readout as a measurement of compound inhibition of replicon levels.
On Day 1 (the day after plating), each compound is added in triplicate to the cells. Plates incubated for 72 h prior to running the luciferase assay. Enzyme activity was measured using a Bright-Glo Kit (cat. number E2620) manufactured by Promega Corporation. The following equation was used to generate a percent control value for each compound. % Control=(Average Compound Value/Average Control)*100
The EC50 value was determined using GraphPad Prism and the following equation: Y=Bottom+(Top−Bottom)/1+10^((Log IC50−X)*HillSlope))
EC50 values of compounds are repeated several times in the replicon assay.

SMILES	EC50
COC(=O)N[C@H](C(=O)N1CCC[C@H]1c1nc(-c2ccc3cc(-c4ccc(-c5cnc([C@@H]6CCCN6C(=O)[C@H](NC(=O)OC)c6ccccc6)[nH]5)cc4F)ccc3c2)c[nH]1)C(C)C [compound 64]	< 1 nM
CCNC(=O)N[C@@H](C(=O)N1CCC[C@H]1c1ncc(-c2ccc(-c3nc4ccc(-c5cnc([C@@H]6CCCN6C(=O)[C@@H](NC(=O)OC)C(C)C)[nH]5)cc4o3)cc2)[nH]1)c1ccccc1 [compound 257]	< 1 nM
COC(=O)N[C@H](C(=O)N1CCC[C@H]1c1nc(-c2ccc3cc(-c4ccc(-c5cnc([C@@H]6CCCN6C(=O)[C@H](NC(=O)OC)c6ccccc6)[nH]5)cc4F)ccc3c2)c[nH]1)C1CCOCC1 [compound 114]	< 1 nM
COC(=O)N[C@H](C(=O)N1CCC[C@H]1c1nc2ccc(-c3ccc4cc(-c5cnc([C@@H]6CCCN6C(=O)[C@@H](c6ccccc6)N6CCCC6)[nH]5)ccc4c3)cc2[nH]1)C(C)C [compound 178]	< 1 nM
COC(=O)N[C@H](C(=O)N1CCC[C@H]1c1nc2ccc(-c3ccc4cc(-c5cnc([C@@H]6CCCN6C(=O)[C@@H](NC(=O)OC)C6CCOCC6)[nH]5)ccc4n3)cc2[nH]1)C(C)C [compound 194]	< 1 nM
COC(=O)N[C@H](C(=O)N1CCC[C@H]1c1nc(-c2ccc3nc(-c4ccc(-c5cnc([C@@H]6CCCN6C(=O)[C@H](NC(=O)NC6CC6)c6ccccc6)[nH]5)cc4)ccc3c2)c[nH]1)C(C)C [compound 34]	< 1 nM
COC(=O)N[C@@H](C)C(=O)N1CCC[C@H]1c1ncc(-c2ccc(-c3ccc4cc(-c5c[nH]c([C@@H]6CCCN6C(=O)[C@@H](NC(=O)OC)C(C)C)n5)ccc4n3)cc2)[nH]1 [compound 44]	< 1 nM
COC(=O)N[C@H](C(=O)N1CCC[C@H]1c1nc(-c2ccc3nc(C45CCC(c6cnc([C@@H]7CCCN7C(=O)[C@@H](NC(=O)OC)C7CC7)[nH]6)(CC4)CC5)ccc3c2)c[nH]1)C1CC1 [compound 265]	< 1 nM
COC(=O)N[C@H](C(=O)N1CCC[C@H]1c1nc(-c2ccc3cc(-c4ccc(-c5cnc([C@@H]6CCCN6C(=O)[C@@H](NC(=O)OC)C(C)C)[nH]5)nc4)ccc3c2)c[nH]1)C(C)C [compound 83]	< 1 nM
COC(=O)N[C@H](C(=O)N1CCC[C@H]1c1ncc(-c2ccc3cc(-c4ccc5nc([C@@H]6CCCN6C(=O)[C@@H](NC(=O)OC)C6CCOCC6)[nH]c5c4)ccc3c2)[nH]1)C1CCOCC1 [compound 203]	< 1 nM
COC(=O)N[C@H](C(=O)N1CCC[C@H]1c1nc(-c2ccc3cc(-c4ccc(-c5cnc([C@@H]6CCCN6C(=O)[C@H](NC(=O)NC6CC6)c6ccccc6)[nH]5)cc4)ccc3c2)c[nH]1)C(C)C [compound 24]	< 1 nM
COC(=O)N[C@H](C(=O)N1CCC[C@H]1c1ncc(-c2ccc3nc(-c4ccc5nc([C@@H]6CCCN6C(=O)[C@@H](NC(=O)OC)C6CCOCC6)[nH]c5c4)ccc3c2)[nH]1)C1CCOCC1 [compound 206]	1 to 9.9 nM
COC(=O)N[C@H](C(=O)N1CCC[C@H]1c1nc2ccc(-c3ccc4cc(-c5ccc6nc([C@@H]7CCCN7C(=O)[C@@H](NC(=O)OC)C(C)C)[nH]c6c5)ncc4c3)cc2[nH]1)C(C)C [compound 281]	< 1 nM
COC(=O)N[C@H](C(=O)N1CCC[C@H]1c1nc(-c2ccc3cc(-c4ccc(-c5cnc([C@@H]6CCCN6C(=O)[C@@H](NC(=O)OC)C(C)C)[nH]5)cc4)ncc3c2)c[nH]1)C(C)C [compound 22]	< 1 nM
COC(=O)N[C@H](C(=O)N1CCC[C@H]1c1ncc(-c2ccc3nc(-c4ccc5nc([C@@H]6CCCN6C(=O)[C@@H](NC(=O)OC)C(C)C)[nH]c5c4)ccc3c2)[nH]1)C(C)C [compound 193]	< 1 nM
COC(=O)N[C@H](C(=O)N1CCC[C@H]1c1nc(-c2ccc3[nH]c(-c4ccc(-c5cnc([C@@H]6CCCN6C(=O)[C@@H](NC(=O)OC)C(C)C)[nH]5)cc4)cc(=O)c3c2)c[nH]1)C(C)C [compound 76]	< 1 nM
COC(=O)N[C@H](C(=O)N1CCC[C@H]1c1nc2ccc(-c3ccc4cc(-c5cnc([C@@H]6CCCN6C(=O)[C@H](NC(=O)OC)c6ccccc6)[nH]5)ccc4c3)cc2[nH]1)C1CCOCC1 [compound 212]	< 1 nM
COC(=O)N[C@H](C(=O)N1CCC[C@H]1c1ncc(-c2ccc(-c3ccc4cc(-c5c[nH]c([C@@H]6CCCN6C(=O)[C@H](NC(=O)N6CC[C@H](O)C6)c6ccccc6)n5)ccc4c3)cc2)[nH]1)C(C)C [compound 15]	< 1 nM
COC(=O)N[C@H](C(=O)N1CCC[C@H]1c1ncc(-c2ccc3cc(-c4ccc(-c5cnc([C@@H]6CCCN6C(=O)[C@H](NC(=O)OC(C)(C)C)c6ccccc6)[nH]5)cc4)ncc3c2)[nH]1)C1CCOCC1 [compound 118]	< 1 nM
COC(=O)N[C@H](C(=O)N1CCC[C@H]1c1ncc(-c2ccc(-c3ccc4cc(-c5cnc([C@@H]6CCCN6C(=O)[C@H](NC(=O)OC)c6ccccc6)[nH]5)ccc4n3)cc2F)[nH]1)C(C)C [compound 124]	< 1 nM
COC(=O)N[C@H](C(=O)N1CCC[C@H]1c1nc(-c2ccc3cc(-c4ccc(-c5cnc([C@@H]6CCCN6C(=O)[C@@H](c6ccccc6)N6CCCC6)[nH]5)cc4)ccc3c2)c[nH]1)C(C)C [compound 10]	< 1 nM
CCNC(=O)N[C@@H](C(=O)N1CCC[C@H]1c1nc(-c2ccc3cc(-c4ccc(-c5cnc([C@@H]6CCCN6C(=O)[C@@H](NC(=O)OC)C(C)C)[nH]5)cc4)ccc3c2)c[nH]1)c1ccccc1 [compound 28]	< 1 nM
COC(=O)N[C@@H](C(=O)N1CCC[C@H]1c1nc(-c2ccc3[nH]c(-c4ccc(-c5cnc([C@@H]6CCCN6C(=O)[C@H](NC(=O)OC)c6ccccc6)[nH]5)cc4)cc(=O)c3c2)c[nH]1)c1ccccc1 [compound 77]	10 to 999 nM
COC(=O)N[C@H](C(=O)N1CCC[C@H]1c1nc2ccc(-c3ccc4nc(-c5cnc([C@@H]6CCCN6C(=O)[C@@H](NC(=O)OC)C6CCOCC6)[nH]5)ccc4c3)cc2[nH]1)C(C)C [compound 211]	< 1 nM
COC(=O)N[C@H](C(=O)N1CCC[C@H]1c1ncc(-c2ccc(-c3ccc4cc(-c5c[nH]c([C@@H]6CCCN6C(=O)[C@H](NC(=O)OC)c6ccccc6)n5)ccc4c3)cc2)[nH]1)C1CCOCC1 [compound 105]	< 1 nM
COC(=O)N[C@H](C(=O)N1CCC[C@H]1c1nc2ccc(-c3ccc4cc(-c5ccc6nc([C@@H]7CCCN7C(=O)[C@H](NC(=O)OC)c7ccccc7)[nH]c6c5)ccc4c3)cc2[nH]1)C(C)C [compound 283]	< 1 nM
COC(=O)N[C@H](C(=O)N1CCC[C@H]1c1ncc(-c2ccc(-c3ccc4cc(-c5c[nH]c([C@@H]6CCCN6C(=O)[C@@H](NC(=O)OC)[C@@H](C)OC)n5)ccc4n3)cc2)[nH]1)C(C)C [compound 40]	< 1 nM
COC(=O)N[C@H](C(=O)N1CCC[C@H]1c1ncc(-c2ccc(-c3ccc4cc(-c5c[nH]c([C@@H]6CCCN6C(=O)[C@H](NC(=O)OC)c6ccccc6)n5)cnc4c3)nc2)[nH]1)C(C)C [compound 60]	< 1 nM
COC(=O)N[C@H](C(=O)N1CCC[C@H]1c1ncc(-c2ccc3cc(-c4ccc(-c5cnc([C@@H]6CCCN6C(=O)[C@@H](c6ccccc6)N6CCOCC6)[nH]5)cc4)ccc3c2)[nH]1)C(C)C [compound 116]	< 1 nM
COC(=O)N[C@H](C(=O)N1CCC[C@H]1c1nc(-c2ccc3cc(-c4ccc(-c5cnc([C@@H]6CCCN6C(=O)[C@@H](NC(=O)OC)C(C)C)[nH]5)cc4)ccc3c2)c[nH]1)C(C)C [compound 1]	< 1 nM
